Assay results reported in PMC5412686 (Biopharmaceutics & Drug Disposition, 2017).
In brackets after ≈: the same amount, converted by molar mass. Read-outs that look alike come from different tables or passages of the source.

Experiments:
[1] = Humans, cited from earlier work; for Urinary excretion (f e): excreted unchanged in urine, ref Supplemental Table S1; for CL: i.v.; for CL / F / Vss: ref Supplemental Table S2; for F: oral bioavailability
[2] = cited from earlier work
[3] = Rats, fraction unbound; ref Supplemental Table S1; cited from earlier work
[4] = Humans, blood/plasma ratio; ref Supplemental Table S1; cited from earlier work
[5] = test system: Caco‐2 cells (TC7 clone); conditions: Equation 11 from measured P‐Caco2
[6] = human, Caco-2, pH 7.4, with cyclosporine A 10 μM
[7] = Rats, blood/plasma ratio; ref Supplemental Table S1; cited from earlier work
[8] = Intrinsic metabolic clearance determined in human liver microsomes; assay type: in vitro ADME; conditions: pH 7.4
[9] = ref Supplemental Table S1, cited from earlier work; for HBD: number of hydrogen bond donors; for PSA: polar surface area; for log D: octanol/water at pH 7.4
[10] = cited from earlier work; remark: listed apart in the source
[11] = Rat i.v. and oral pharmacokinetics from literature; assay type: in vivo, rats; conditions: liver blood flow 80 ml/min/kg
[12] = Solubility in fasted state simulated intestinal fluid; assay type: physicochemical; conditions: FaSSIF, 37 °C, pH 6.5, fassif, thermodynamic from solid
[13] = Humans, fraction unbound in plasma; ref Supplemental Table S1; cited from earlier work
[14] = no medium marked (buffer pH 7.4), ref Supplemental Table S1
[15] = Rats, i.v., ref Supplemental Table S2

| SMILES | Urinary excretion (f e) [1] | CL [1] [L/h] | F [1] | Solubility (Biorelevant media or Buffer, pH 7.4) [2, 14] [mg/ml] | f up [3] | R b [4] | Calculated P eff from P‐Caco2 [5] | Papp at 2 h, 1 μM [6] [×10⁻⁶ cm/s] | R b [7] | microsomal CLint at 1 μM [8] [µL/min/mg] | HBD [9] | PSA [9] | CL [10, 15] [mL/min/kg] | Vss [1] [L/kg] | log D [9] | F ([10]; rat, in vivo, po) | also measured |
| --- | --- | --- | --- | --- | --- | --- | --- | --- | --- | --- | --- | --- | --- | --- | --- | --- | --- |
| Cc1nnc2n1-c1ccc(Cl)cc1C(c1ccccc1)=NC2 [Alprazolam] | 20 % of dose | 3.11 | 0.96 | 40 | 0.35 | 0.78 | 4.3 10^−4 cm/s | 38.6 | 0.81 | < 10 | 0 | 33.3 | 133 |  |  |  | F ([10]; Rats, oral bioavailability, ref Supplemental Table S2): 0.28; Rat blood clearance compared with liver blood flow [11]: exceeding maximum liver blood flow value |
| C=CCc1ccccc1OCC(O)CNC(C)C (stereo not shown) [Alprenolol] | 0.5 % of dose | 65.90 | 0.06 | 0.55 |  | 0.76 | 3.9 10^−4 cm/s | 31.5 | 1.71 | 128 | 2 | 46.2 | 79 | 2.99 | 1.34 | 0.04 |  |
| O=c1[nH]c2ccccc2n1CCCN1CCC(n2c(=O)[nH]c3cc(Cl)ccc32)CC1 [Domperidone] | < 1 % of dose | 42.06 |  |  |  |  | 4.3 10^−4 cm/s | 38.6 |  | 166 | 2 | 66.8 | 39.2 |  | 3.33 |  | solubility at 24 h [12]: 135 µg/mL (≈ 317 µM) |
| CCOC(=O)C1=C(C)NC(C)=C(C(=O)OC)C1c1cccc(Cl)c1Cl (stereo not shown) [Felodipine] | < 1 % of dose |  | 0.25 |  | 0.001 | 0.7 |  |  | 0.68 |  | 1 | 68.7 |  |  | 4.76 | 0.1 | solubility at 24 h [12]: 40 µg/mL (≈ 104 µM); Acid pKa [9]: 5.1 |
| CCOC(=O)c1ncn2c1CN(C)C(=O)c1cc(F)ccc1-2 [Flumazenil] | 0.5 % of dose | 72.06 |  | 0.13 | 0.14 | 1 |  |  |  | 39 | 0 | 57.0 | 147 | 0.97 | 0.87 | 0.28 | Rat blood clearance compared with liver blood flow [11]: exceeding maximum liver blood flow value |
| CCC(C)n1ncn(-c2ccc(N3CCN(c4ccc(OCC5COC(Cn6cncn6)(c6ccc(Cl)cc6Cl)O5)cc4)CC3)cc2)c1=O (stereo not shown) [Itraconazole] | < 1 % of dose | 22.86 | 0.76 |  | 0.009 |  |  |  |  |  | 0 | 84.7 | 9.1 |  | 3.27 | 0.35 | Solubility (Biorelevant media or Buffer, pH 7.4) ([2]; FaHIF, fasted human intestinal fluid): 0.006 (FaHIF) mg/ml |
| CCN(CC)CC(=O)Nc1c(C)cccc1C [Lidocaine] |  |  |  |  |  | 0.87 |  |  | 1.27 |  |  |  |  |  |  |  |  |
| Cc1ncc2n1-c1ccc(Cl)cc1C(c1ccccc1F)=NC2 [Midazolam] | < 1 % of dose | 19.38 | 0.7 | 0.024 |  | 0.75 |  |  | 0.81 | 392 | 0 | 20.1 |  | 0.74 | 1.53 | 0.25 | Base pKa [9]: 5.6; CL ([10]; rat, in vivo, iv): 46 mL/min/kg |
| COC(=O)C1=C(C)NC(C)=C(C(=O)OCCN(C)Cc2ccccc2)C1c1cccc([N+](=O)[O-])c1 (stereo not shown) [Nicardipine] |  |  |  |  | 0.01 |  |  |  |  |  | 1 | 114.0 |  |  |  | 0.22 | solubility at 24 h [12]: 227 µg/mL (≈ 473 µM); Base pKa [9]: 7.3 |
| COC(=O)C1=C(C)NC(C)=C(C(=O)OCC(C)C)C1c1ccccc1[N+](=O)[O-] (stereo not shown) [Nisoldipine] | < 1 % of dose | 50.82 | 0.04 | 0.006 | 0.009 |  | 5.2 10^−4 cm/s | 56.7 |  | > 1000 | 1 | 110.5 | 45.8 | 4.1 | 4.96 | 0.03 |  |
| CCOC(=O)C1=C(C)NC(C)=C(C(=O)OC)C1c1cccc([N+](=O)[O-])c1 (stereo not shown) [Nitrendipine] | < 1 % of dose | 78.89 | 0.39 |  |  | 1.46 |  |  | 1.46 |  | 1 | 112.9 | 16.5 | 5.39 | 3.81 | 0.12 | solubility at 24 h [12]: 8 µg/mL (≈ 22.2 µM) |
| COc1ccc2[nH]c([S+]([O-])Cc3ncc(C)c(OC)c3C)nc2c1 (stereo not shown) [Omeprazole] | 0 % of dose | 39.48 | 0.32 | 0.035 |  | 0.59 |  |  | 0.66 | < 10 | 1 | 71.0 | 39.2 |  | 2.23 | 0.09 |  |
| CC(C)(C)NC(=O)[C@@H]1C[C@@H]2CCCC[C@@H]2CN1C[C@@H](O)[C@H](Cc1ccccc1)NC(=O)[C@H](CC(N)=O)NC(=O)c1ccc2ccccc2n1 [Saquinavir] |  |  |  | 2.22 | 0.05 |  | 1.6 10^−4 cm/s | 5 |  |  | 5 | 178.8 |  |  | 5.05 | 0.07 | f up [13]: 0.03; Base pKa [9]: 7.7; CL ([10]; rat, in vivo, iv): 88.5 mL/min/kg |
| CCCc1nn(C)c2c(=O)[nH]c(-c3cc(S(=O)(=O)N4CCN(C)CC4)ccc3OCC)nc12 [Sildenafil] |  | 40.08 | 0.41 | 3.5 |  |  | 3.7 10^−4 cm/s | 28.6 |  | 98 | 1 | 105.2 | 38.5 |  | 2.45 | 0.06 | Base pKa [9]: 6.0 |
| C=CC[C@@H]1/C=C(\C)C[C@H](C)C[C@H](OC)[C@H]2O[C@@](O)(C(=O)C(=O)N3CCCC[C@H]3C(=O)O[C@H](/C(C)=C/[C@@H]3CC[C@@H](O)[C@H](OC)C3)[C@H](C)[C@@H](O)CC1=O)[C@H](C)C[C@@H]2OC [Tacrolimus] | < 1 % of dose | 78.75 | 0.21 | 0.008 |  | 35 |  |  | 1.4 |  | 3 | 185.9 | 16.5 | 1.74 | 3.96 | 0.11 | Base pKa [9]: 9.3 |
| Cc1ccc(O)c([C@H](CCN(C(C)C)C(C)C)c2ccccc2)c1 [Tolterodine] |  | 27.72 | 0.72 | 12 |  |  | 3.6 10^−4 cm/s | 26.2 |  | 115 | 1 | 24.1 | 166.7 | 1.4 | 2.38 | 0.02 | Rat blood clearance compared with liver blood flow [11]: exceeding maximum liver blood flow value |
| Cc1nnc2n1-c1ccc(Cl)cc1C(c1ccccc1Cl)=NC2 [Triazolam] | 2 % of dose | 12.72 | 0.8 | 0.005 | 0.28 |  |  |  |  |  | 0 | 33.3 |  |  |  | 0.16 | CL ([10]; rat, in vivo, iv): 51.4 mL/min/kg |
| Cc1ccc(-c2nc3ccc(C)cn3c2CC(=O)N(C)C)cc1 [Zolpidem] | < 1 % of dose | 18.85 | 0.78 | 23 |  | 0.66 |  |  | 0.86 | < 10 | 0 | 30.0 | 15 | 0.68 |  | 0.27 | Acid pKa [9]: 6.3 |
